For this test, the system named is fast-dividing cells in the SVZ and SGZ. The experiment in a line: AraC infusion (mini-osmotic pump, one week) into brain of tamoxifen-marked Gli1-CreERT2;R26R mice; marker analysis of fate-mapped lacZ+ cells. To be noted: for lacZ+;GFAP+/total lacZ+ ± SD (%): end of one-week 2% AraC infusion (0 day); for lacZ+;PSA-NCAM+/total lacZ+ ± SD (%): AraC 0 day; for Dlx2 expression: after AraC treatment.

Description: For AraC treatment, two days after TM treatment, a mini-osmotic pump (model 1007D, Duret) was implanted to infuse either saline or 2% AraC (Sigma) for one week as described (Doetsch, F. et al. (1999), Proc Natl Acad Sci USA 96: 11619-11624). Brains of mice that were sacrificed at the end of AraC or control treatment were designated as day 0 samples. For long-term survival experiments, the pump was removed one week after implantation and mice were later sacrificed at the indicated survival time. The second application of AraC was done as the first AraC treatment.
Mice were perfused (4% paraformaldehyde (PFA)), processed for frozen sections, and stained with X-gal as described in the Joyner lab website (http://saturn.med.nyu.edu/research/dg/joynerlab). For immunofluorescent staining, dissected brains were fixed in 4% PFA overnight at 4° C. and 50 μm vibratome (Leica) sections were obtained. Free-floating sections were stained overnight at 4° C. with goat anti-galactosidase (1:500; Biogenesis) and one of the following antibodies: mouse anti-GFAP (1:500), anti-PSA-NCAM (1:300), anti-NeuN (1:200; Chemicon), anti-CCI (1:20, Calbiochem), anti-CNPase (1:150), anti-MBP (1:200, SMI), guinea pig anti-Olig2 (1:20,000; from B. Novitch), rat anti-NG2/AN2 (1:10; from C. Klein), and rabbit anti-GABA (1:500, Sigma). Secondary antibodies for double labeling were donkey anti-species conjugated with Alexa 488, Alexa 555 (1:500; Molecular Probes), or FITC (1:200; Jackson ImmunoResearch). Fluorescent images were captured in 1.5-μm optical sections using a confocal laser-scanning microscope (LSM 510, Zeiss) and processed with Adobe Photoshop. Orthogonal analysis was performed to confirm co-expression of two markers. Cells co-expressing lacZ and one of the various markers were counted and divided by total number of lacZ expressing cells in the indicated region. At least three sections through the SVZ and DG were analyzed from one mouse. Data from at least three mice were pooled together to determine the average and standard deviation (SD). T-test was performed to calculate the p-value and determine whether the results between two time points were different with statistical significance.
Two days after TM treatment, AraC was infused for one week into the brain of Gli1-CreER^T2; R26R mice using a mini-osmotic pump.

Regarding `Nc1ccn([C@@H]2O[C@H](CO)[C@@H](O)[C@@H]2O)c(=O)n1` [AraC, cytosine arabinoside], the “lacZ+;GFAP+/total lacZ+ ± SD (%)” value stood at 93.7±4.7% (DG (SGZ)) and 92.2±1.0% (ventral SVZ). The “lacZ+;PSA-NCAM+/total lacZ+ ± SD (%)” value runs as follows: (DG) 2.1 ± 3.6%; (ventral SVZ) 1.6 ± 2.9%. Besides, the Dlx2 expression result reads like this: (RMS) “greatly diminished”; (SVZ) “abolished”. Moreover, where the note is “end of AraC treatment (day 0), n=3”, the “neuroblasts (PSA-NCAM immunoreactivity) in whole mounts of the lateral wall of the lateral ventricles” value was “almost completely depleted”. In addition, the “labeled cells in the SVZ and DG versus control mice” value (within one week after AraC removal, n=5 vs control n=4) is listed as “expanded more than control mice”.

For the origin of these results see patent publication US20070204353A1, “Transgenic animals and methods of monitoring hedgehog responding cells” (priority 2005, published 2007).
